Holding throughout (experiment): In vitro antibacterial activity test (broth microdilution)
Holding throughout (format): cell-based

The test system of assay [1] is P. aeruginosa 40. The method, boiled down: (§1)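 MIC90 was determined by CLSI broth microdilution against clinical isolates, as the lowest concentration inhibiting visible growth of 90% of organisms relative to untreated control. Final compound concentrations spanned 0.0626–128 ug/mL with 2.5% (V/V) DMSO.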
The subject of assay [2] is P. aeruginosa 43. Summed up: as §1
The test system of assay [3] is A. baumannii 49. Summed up:
as §1

Assay [4] deals with E. coli AG100. The method, boiled down: as §1
Assay [5] has as its system K. pneumoniae β9. The method, boiled down:
as §1

Assay [6] deals with P. aeruginosa 1912E. Summed up: as §1
In assay [7] the test system is K. pneumoniae β11. The method, boiled down:
as §1

In assay [8] the test system is K. pneumoniae β14. Summed up: as §1
The subject of assay [9] is A. baumannii 46. The method, boiled down: as §1
The subject of assay [10] is A. baumannii 52. Summed up:
as §1

In assay [11] the test system is K. pneumoniae β10. Summed up:
as §1

Assay [12] concerns A. calcoaceticus ATCC15473. Summed up: as §1
The test system of assay [13] is E. coli β4. The method, boiled down: as §1
Assay [14] deals with E. cloacae β19. Summed up:
as §1

Assay [15] relates to P. aeruginosa 37. The method, boiled down: as §1
Assay [16] deals with M. catarrhalis 2524. The method, boiled down:
as §1

Assay [17] deals with P. aeruginosa 6065Y. The method, boiled down: as §1
In assay [18] the test system is K. pneumoniae 2011E. Summed up:
as §1

The subject of assay [19] is K. pneumoniae β13. The method, boiled down:
as §1

Where [20] appears, read: Acinetobacter baumannii, 49, A. baumannii 49.
Setting [21] is: Acinetobacter baumannii, 46, A. baumannii 46.
Where [22] appears, read: Acinetobacter calcoaceticus, ATCC15473, A. calcoaceticus ATCC15473.
[23] abbreviates: Pseudomonas aeruginosa, 37, P. aeruginosa 37.

In brackets after ≈: the same amount, converted by molar mass. Like-named read-outs stand apart in the source and are kept apart here. Some results are limits rather than exact numbers.

In the case of `CC(C)(ON=C(C(=O)NC1C(=O)N2C(C(=O)O)=C(C=CC[n+]3cnc(N)c(NC(=O)CCN)c3N)CSC12)c1csc(N)n1)C(=O)O.O=C([O-])C(F)(F)F` (stereo not shown) [Compound 45], the MIC90 in [1] (P. aeruginosa 40) is 8 µg/mL; in assay [2] (P. aeruginosa 43) it was more than 128 µg/mL; in assay [3] (A. baumannii 49), more than 128 µg/mL; in assay [4] (E. coli AG100), 0.25 µg/mL; in assay [5] (K. pneumoniae β9), 0.5 µg/mL; in assay [6], 4 µg/mL. For the same molecule, the MIC90 in assay [7] (K. pneumoniae β11) was 16 µg/mL; in assay [8], 1 µg/mL; in assay [9] (A. baumannii 46) it was 16 µg/mL; in [10] (A. baumannii 52), more than 128 µg/mL; in assay [11] (K. pneumoniae β10) it was 0.5 µg/mL; in assay [12] (A. calcoaceticus ATCC15473), 2 µg/mL. The MIC90 was 0.25 µg/mL in assay [13]; 0.25 µg/mL in assay [14]; 16 µg/mL in assay [15] (P. aeruginosa 37); less than 0.0625 µg/mL in assay [16] (M. catarrhalis 2524); 16 µg/mL in assay [17]; 0.5 µg/mL in [18] (K. pneumoniae 2011E). In assay [19] (K. pneumoniae β13), this molecule yielded an MIC90 of 0.5 µg/mL.

As for `CNCCNc1c[n+](C/C=C/C2=C(C(=O)[O-])N3C(=O)[C@@H](NC(=O)/C(=N\OC(C)(C)C(=O)O)c4csc(N)n4)C3SC2)cnc1N` (stereo partly shown) [Compound 51], the MIC90 was 4 µg/mL (≈ 6.05 µM) in assay [1] (Pseudomonas aeruginosa, 40); 64 µg/mL (≈ 96.9 µM) in [2] (Pseudomonas aeruginosa, 43); more than 128 µg/mL in assay [3] (setting [20]); 0.125 µg/mL (≈ 0.189 µM) in [4] (Escherichia coli, AG100); 0.5 µg/mL (≈ 0.757 µM) in assay [5] (Klebsiella pneumoniae); 2 µg/mL (≈ 3.03 µM) in assay [6] (Pseudomonas aeruginosa, 1912E). Besides, the MIC90 in assay [7] (Klebsiella pneumoniae) is 32 µg/mL (≈ 48.4 µM); in assay [8] (Klebsiella pneumoniae) it was 0.5 µg/mL (≈ 0.757 µM); in assay [9] (setting [21]), 8 µg/mL (≈ 12.1 µM); in assay [10] (Acinetobacter baumannii, 52), 128 µg/mL (≈ 194 µM); in assay [11] (Klebsiella pneumoniae), 0.25 µg/mL (≈ 0.378 µM); in [12] (setting [22]), 0.5 µg/mL (≈ 0.757 µM). The MIC90 in assay [13] (Escherichia coli) was 0.125 µg/mL (≈ 0.189 µM); in assay [14] (Enterobacter cloacae) it was 32 µg/mL (≈ 48.4 µM); in [15] (setting [23]) it was 32 µg/mL (≈ 48.4 µM); in assay [16] (Moraxella catarrhalis, 2524) it was less than 0.0625 µg/mL; in [17] (Pseudomonas aeruginosa, 6065Y) it was 32 µg/mL (≈ 48.4 µM); in assay [18] (Klebsiella pneumoniae, 2011E), 0.5 µg/mL (≈ 0.757 µM). This molecule showed an MIC90 in assay [19] (Klebsiella pneumoniae) of 0.5 µg/mL (≈ 0.757 µM).

Consider `C[C@H](O/N=C(\C(=O)N[C@@H]1C(=O)N2C(C(=O)[O-])=C(/C=C/C[n+]3cnc(N)c(NCCN)c3)CSC12)c1csc(N)n1)C(=O)O` (stereo partly shown) [Compound 52], for which the MIC90 is 2 µg/mL (≈ 3.16 µM) in assay [1] (Pseudomonas aeruginosa, 40); 32 µg/mL (≈ 50.6 µM) in assay [2] (Pseudomonas aeruginosa, 43); more than 128 µg/mL in [3] (setting [20]); less than 0.0625 µg/mL in assay [4] (Escherichia coli, AG100); 4 µg/mL (≈ 6.32 µM) in assay [5] (Klebsiella pneumoniae); 0.5 µg/mL (≈ 0.79 µM) in assay [6] (Pseudomonas aeruginosa, 1912E). The MIC90 in [7] (Klebsiella pneumoniae) is 128 µg/mL (≈ 202 µM); in [8] (Klebsiella pneumoniae), 8 µg/mL (≈ 12.6 µM); in assay [9] (setting [21]), 1 µg/mL (≈ 1.58 µM); in assay [10] (Acinetobacter baumannii, 52) it was more than 128 µg/mL; in assay [11] (Klebsiella pneumoniae), 1 µg/mL (≈ 1.58 µM); in [12] (setting [22]) it was 1 µg/mL (≈ 1.58 µM). The MIC90 in assay [13] (Escherichia coli) is less than 0.0625 µg/mL; in assay [14] (Enterobacter cloacae), 8 µg/mL (≈ 12.6 µM); in assay [15] (setting [23]) it was 16 µg/mL (≈ 25.3 µM); in assay [16] (Moraxella catarrhalis, 2524), less than 0.0625 µg/mL; in [17] (Pseudomonas aeruginosa, 6065Y), 4 µg/mL (≈ 6.32 µM); in assay [18] (Klebsiella pneumoniae, 2011E), less than 0.0625 µg/mL. The same molecule came in with an MIC90 in assay [19] (Klebsiella pneumoniae) of 4 µg/mL (≈ 6.32 µM).

Regarding `CC(C)(O/N=C(\C(=O)N[C@@H]1C(=O)N2C(C(=O)[O-])=C(/C=C/C[n+]3cnc(N)c(NCCN)c3)CSC12)c1nc(N)sc1Cl)C(=O)O` (stereo partly shown) [Compound 54], the MIC90 in [1] (Pseudomonas aeruginosa, 40) worked out at 4 µg/mL (≈ 5.87 µM); in [2] (Pseudomonas aeruginosa, 43), 64 µg/mL (≈ 94 µM); in [3] (setting [20]) it was 128 µg/mL (≈ 188 µM); in assay [4] (Escherichia coli, AG100) it was 0.25 µg/mL (≈ 0.367 µM); in [5] (Klebsiella pneumoniae), 1 µg/mL (≈ 1.47 µM); in [6] (Pseudomonas aeruginosa, 1912E), 2 µg/mL (≈ 2.94 µM). Further, the MIC90 in assay [7] (Klebsiella pneumoniae) is 2 µg/mL (≈ 2.94 µM); in assay [8] (Klebsiella pneumoniae) it was 1 µg/mL (≈ 1.47 µM); in assay [9] (setting [21]), 4 µg/mL (≈ 5.87 µM); in assay [10] (Acinetobacter baumannii, 52), 32 µg/mL (≈ 47 µM); in [11] (Klebsiella pneumoniae), 0.5 µg/mL (≈ 0.734 µM); in assay [12] (setting [22]), 1 µg/mL (≈ 1.47 µM). The MIC90 was 0.5 µg/mL (≈ 0.734 µM) in assay [13] (Escherichia coli); 4 µg/mL (≈ 5.87 µM) in assay [14] (Enterobacter cloacae); 4 µg/mL (≈ 5.87 µM) in [15] (setting [23]); less than 0.0625 µg/mL in [16] (Moraxella catarrhalis, 2524); 16 µg/mL (≈ 23.5 µM) in assay [17] (Pseudomonas aeruginosa, 6065Y); 1 µg/mL (≈ 1.47 µM) in assay [18] (Klebsiella pneumoniae, 2011E). In addition, the MIC90 in assay [19] (Klebsiella pneumoniae) came to 1 µg/mL (≈ 1.47 µM).
